This assay concerns Red imported fire ant (Solenopsis invicta). As to the kind of experiment: Fire ant repellency, honey plates near mounds (Example 6). The format is in vivo. The settings on record: separate trial; about 100 mg per plate; within 4 feet of mounds. An excerpt:
Formulation A was poured into a plastic spray bottle and was sprayed onto 20 eight inch paper plates, one squeeze of the pump trigger per plate. […] Ten treated plates were placed randomly on the ground on a farm in Sparks, Ga., USA and ten control (untreated) plates were placed on the ground about 3 feet from the treated plates. Ten treated plates were placed about 4 feet from active Red imported fire ant mounds and ten control plates were placed near the same mounds no closer than 3 feet from the treated plates. Each plate received approximately 15 mL of an aqueous 25% honey solution.
Fifty percent of the control plates had active fire ant feeding within 15 minutes and 100% of the control plates had active fire ant feeding within 30 minutes.

Consider one compound from US10178865B2, “Insect repellent” (priority 2013, dated 2019).

Regarding `COC(=O)c1ccccc1N` [methyl anthranilate], the “deterrence of fire ant feeding” value was “did not deter fire ants from feeding”.
